The numbers were not newly measured in patent publication US7897820B2, “Process for preparing erianin” (Zhe Jiang Cell Biomedical Research Co., Ltd., priority 2005, dated 2011), which cites them from elsewhere.

Series [1] relates to liver cancer of mouse.
In series [2] the test system is tumor cell strain K256. Particulars: among dihydrobibenzyls and phenanthrenes in Dendrobium chrysotoxum.
In series [3] the test system is human leukemia HL-60 cells.
Series [4] relates to microtubulin. Particulars: target is the microtubulin in the cell.
The conditions of series [5]: compared with 5FU.

Regarding `COc1ccc(CCc2cc(OC)c(OC)c(OC)c2)cc1O` [Erianin, 2-methoxyl-5-[2-(3,4,5-trimethoxyphenyl)]ethyl phenol], the tumor inhibitory rate in series [1] is recorded as 50.82%. Further, in series [2], the “inhibitory effect on the growth of tumor cell strain K256” value is on record as “most active”. Also, in series [3], the “inhibition of growth of human leukemia HL-60 cells” value is “significantly inhibited the growth”. The “effect on polymerizing of microtubulin” value in series [4] is “inhibit the polymerizing of microtubulin”. Further, the side effect entry in series [5] is reported as “far lower then 5FU”.
